The text below walks through data of patent US8686018B2, “Pharmaceutical composition” (Eisai R&D Management Co., Ltd., priority 2010, dated 2014).

Structures are written as SMILES. pIC50, pKi: −log10 of the molar value.

Assay [1] addresses T1, EP4 (Homo sapiens (Human), UniProt P35408). Briefly: CRE-PLAP reporter assay. The assay is classed as cell-based. The following applies: SE302 (HEK/293 clone) cells with endogenous EP4, stimulated with 3 ng/mL PGE2 overnight. As to the method: Cells were maintained in DMEM/F12 (50:50) (MediaTech) supplemented with 10% FBS (Tissue Culture Biologicals) plus penicillin/streptomycin. When used for assays, cells were plated in a 96-well plate at 2×10^4 cells/100 μL/well in serum-free assay medium (DMEM/F12 supplemented with 0.1% BSA plus penicillin/streptomycin) and incubated for 4-6 h.
Exemplary compounds of the present invention were assayed according to the methods set forth above in the CRE-PLAP reporter assay described above.
(Reporter assays use an easily measured gene product as a stand-in for the process of interest.)

The target of assay [2] is T1, EP4. Briefly: Radioligand EP4 receptor binding assay. The settings on record: Chem-1 cell membranes overexpressing human EP4, [3H]-PGE2 displacement. The method, then: The radioligand EP4 binding assay was performed using ChemiScreen recombinant human EP4 receptor membrane preparations from Millipore, according to manufacturer's instructions. Briefly, membranes prepared from Chem-1 cells overexpressing human EP4 cDNA (Millipore) were mixed with 1.8 nmol.L^−1 [^3H]-PGE2 and 5 μmol.L^−1 unlabelled PGE2 in the presence or absence of various concentrations of testing compounds in binding buffer (50 mmol.L^−1 HEPES, pH 7.4, 5 mmol.L^−1 MgCl2, 1 mmol.L^−1 CaCl2, 0.2% BSA) in a nonbinding 96-well plate, and incubated for 1-2 h at room temperature. Prior to filtration, a GF/C 96-well filter plate was coated with 0.33% polyethyleneimine for 30 min, then washed with 50 mmol.L^−1 HEPES, pH 7.4, 0.5% BSA. Binding reactions were transferred to the filter plate, and washed 3 times with Wash Buffer (1 mL per well per wash). The plate was dried and radioactivity counted.

T1 sequence (P35408 whole entry): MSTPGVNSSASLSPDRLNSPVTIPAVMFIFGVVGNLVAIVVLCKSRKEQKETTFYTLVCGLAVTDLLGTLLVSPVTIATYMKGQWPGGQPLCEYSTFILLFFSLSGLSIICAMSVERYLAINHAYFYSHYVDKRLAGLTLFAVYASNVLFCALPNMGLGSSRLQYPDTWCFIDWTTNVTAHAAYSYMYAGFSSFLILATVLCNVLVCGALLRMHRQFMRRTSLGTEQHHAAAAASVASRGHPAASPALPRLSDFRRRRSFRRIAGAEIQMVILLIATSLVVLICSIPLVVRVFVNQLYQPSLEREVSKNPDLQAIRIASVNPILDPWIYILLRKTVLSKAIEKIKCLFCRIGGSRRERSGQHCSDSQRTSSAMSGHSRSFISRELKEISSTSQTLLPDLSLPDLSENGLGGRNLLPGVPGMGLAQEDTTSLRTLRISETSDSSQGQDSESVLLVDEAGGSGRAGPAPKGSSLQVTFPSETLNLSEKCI

What is called pIC50 is −log10 of the IC50, conventionally taken in molar units. For `Cc1nn(C)c(Oc2ccc(Cl)cc2)c1C(=O)N[C@@H](C)c1ccc(C(=O)O)cc1` [ER-880663-00], the pIC50 at EP4 [1] is 6.21.

Consider `C[C@H](NC(=O)c1c(C(F)(F)F)nn(C)c1Oc1cccc(Cl)c1)c1ccc(C(=O)O)cc1` [ER-885289-00], for which the pIC50 at EP4 [1] is 7.35.

As a reminder, the pKi is the Ki on a negative log10 scale, so that one unit is a factor of ten. Low values mean a large Ki, high ones a small Ki. On EP4 [1], `Cc1nn(C)c(Oc2cccc(C(F)(F)F)c2)c1C(=O)N[C@@H](C)c1ccc(C(=O)O)cc1` [ER-885290-00] showed a pIC50 of 7.74. This molecule also had a pKi at EP4 [2] of 7.85.

`C[C@H](NC(=O)c1c(C(F)(F)F)nn(C)c1Oc1cccc(C(F)(F)F)c1)c1ccc(C(=O)O)cc1` [ER-885291-00] gave a pIC50 against EP4 [1] of 7.57.

On to `Cc1nn(C)c(Oc2ccc(F)cc2)c1C(=O)N[C@@H](C)c1ccc(C(=O)O)cc1` [ER-885302-00], for which, at EP4 [1], the pIC50 was 6.58.

At EP4 [1], `Cc1nn(C)c(Oc2ccc(C(F)(F)F)cc2)c1C(=O)N[C@@H](C)c1ccc(C(=O)O)cc1` [ER-885311-00] had a pIC50 of 6.56.

At EP4 [1], `Cc1nn(C)c(Oc2ccc(Cl)c(Cl)c2)c1C(=O)N[C@@H](C)c1ccc(C(=O)O)cc1` [ER-885716-00] showed a pIC50 of 7.04.

As for `Cc1nn(C)c(Oc2cccc(F)c2)c1C(=O)N[C@@H](C)c1ccc(C(=O)O)cc1` [ER-885717-00], on EP4 [1], the pIC50 is 6.01.

`Cc1nn(C)c(Oc2ccc(F)c(F)c2)c1C(=O)N[C@@H](C)c1ccc(C(=O)O)cc1` [ER-885718-00] gave a negative logarithm of the IC50 (pIC50) on EP4 [1] of 6.33.

Take `Cc1nn(C)c(Oc2cccc(F)c2F)c1C(=O)N[C@@H](C)c1ccc(C(=O)O)cc1` [ER-885719-00]: the pIC50 against EP4 [1] is 5.57.

Take `Cc1nn(C)c(Oc2cc(F)ccc2F)c1C(=O)N[C@@H](C)c1ccc(C(=O)O)cc1` [ER-885720-00]: the negative-log IC50 (pIC50) on EP4 [1] was 5.65.

For the molecule `Cc1nn(C)c(Oc2cc(Cl)cc(Cl)c2)c1C(=O)N[C@@H](C)c1ccc(C(=O)O)cc1` [ER-885721-00], at EP4 [1], the pIC50 was 6.07.

In turn, `Cc1nn(C)c(Oc2cccc(C(F)(F)F)c2)c1C(=O)NC1(c2ccc(C(=O)O)cc2)CC1` [ER-885740-00] showed a pIC50 against EP4 [1] of 7.92. The same molecule had a pKi at EP4 [2] of 7.37.

Consider `Cn1nc(C(F)(F)F)c(C(=O)NC2(c3ccc(C(=O)O)cc3)CC2)c1Oc1cccc(C(F)(F)F)c1` [ER-885741-00], for which the pIC50 against EP4 [1] was 7.89. Also, the pKi on EP4 [2] was 7.80.

Molecule `Cn1nc(C(F)(F)F)c(C(=O)NC2(c3ccc(C(=O)O)cc3)CC2)c1Oc1cccc(Cl)c1` [ER-885743-00] showed a pIC50 against EP4 [1] of 7.42.

Take `Cc1nn(C)c(Oc2cccc(Cl)c2)c1C(=O)N[C@@H](C)c1ccc(C(=O)O)cc1` [ER-885744-00]: at EP4 [1], the pIC50 is 6.77. This pIC50 lies 0.65 log units lower than the previous one.

As for `Cc1ccc(Oc2c(C(=O)N[C@@H](C)c3ccc(C(=O)O)cc3)c(C)nn2C)cc1` [ER-885749-00], the pIC50 against EP4 [1] was 6.35.

On to `Cc1nn(C)c(Oc2cccc(Cl)c2Cl)c1C(=O)N[C@@H](C)c1ccc(C(=O)O)cc1` [ER-886022-00], for which the pIC50 on EP4 [1] was 6.14.

In turn, `Cc1nn(C)c(Oc2cc(F)cc(Cl)c2)c1C(=O)N[C@@H](C)c1ccc(C(=O)O)cc1` [ER-886024-00] showed a pIC50 on EP4 [1] of 6.20.

The molecule `Cc1nn(C)c(Oc2cc(F)ccc2Cl)c1C(=O)N[C@@H](C)c1ccc(C(=O)O)cc1` [ER-886025-00] had a negative-log IC50 (pIC50) on EP4 [1] of 5.31.

`Cc1cccc(Oc2c(C(=O)N[C@@H](C)c3ccc(C(=O)O)cc3)c(C)nn2C)c1` [ER-886032-00] gave a pIC50 against EP4 [1] of 6.45.

Turning to `Cc1cc(C)cc(Oc2c(C(=O)N[C@@H](C)c3ccc(C(=O)O)cc3)c(C)nn2C)c1` [ER-886033-00], the pIC50 against EP4 [1] is 5.67.

At EP4 [1], `COc1cc(OC)cc(Oc2c(C(=O)N[C@@H](C)c3ccc(C(=O)O)cc3)c(C)nn2C)c1` [ER-886035-00] showed a pIC50 of 5.44.

In turn, `C[C@H](NC(=O)c1c(C(F)F)nn(C)c1Oc1cccc(Cl)c1)c1ccc(C(=O)O)cc1` [ER-886045-00] had a pIC50 against EP4 [1] of 7.74. Moreover, the negative-log Ki (pKi) on EP4 [2] is 7.30.

On to `Cc1nn(C)c(Oc2cccc(OC(F)(F)F)c2)c1C(=O)N[C@@H](C)c1ccc(C(=O)O)cc1` [ER-886061-00], for which, at EP4 [1], the pIC50 was 7.05.

Take `C[C@H](NC(=O)c1c(C(F)(F)F)nn(C)c1Oc1cccc(F)c1)c1ccc(C(=O)O)cc1` [ER-886072-00]: the negative-log IC50 (pIC50) on EP4 [1] is 6.88. The pIC50 values of the last two molecules are within 0.2 log units of each other.

Regarding `C[C@H](NC(=O)c1c(C(F)(F)F)nn(C)c1Oc1ccc(F)c(F)c1)c1ccc(C(=O)O)cc1` [ER-886073-00], the pIC50 on EP4 [1] is 6.96. The pIC50 values of the last two molecules are within 0.2 log units of each other.

For the molecule `C[C@H](NC(=O)c1c(C(F)(F)F)nn(C)c1Oc1ccc(Cl)c(Cl)c1)c1ccc(C(=O)O)cc1` [ER-886074-00], on EP4 [1], the pIC50 was 8.00. Also, the pKi at EP4 [2] was 7.89.

On to `Cc1nn(C)c(Oc2cccc(Cl)c2)c1C(=O)NC1(c2ccc(C(=O)O)cc2)CC1` [ER-886077-00], for which the pIC50 at EP4 [1] is 7.07.

Take `Cn1nc(C(F)F)c(C(=O)NC2(c3ccc(C(=O)O)cc3)CC2)c1Oc1cccc(C(F)(F)F)c1` [ER-886078-00]: on EP4 [1], the pIC50 was 8.05. This molecule also gave a pKi at EP4 [2] of 8.10.

`Cc1nn(C)c(Oc2cccc(OC(F)F)c2)c1C(=O)N[C@@H](C)c1ccc(C(=O)O)cc1` [ER-886080-00] gave a pIC50 on EP4 [1] of 7.24.

`C[C@H](NC(=O)c1c(C(F)(F)F)nn(C)c1Oc1cccc(OC(F)F)c1)c1ccc(C(=O)O)cc1` [ER-886082-00] gave a pIC50 against EP4 [1] of 7.06.

On to `C[C@H](NC(=O)c1c(C(F)F)nn(C)c1Oc1cccc(OC(F)F)c1)c1ccc(C(=O)O)cc1` [ER-886090-00], for which the negative-log IC50 (pIC50) against EP4 [1] is 7.77. The same molecule showed a pKi at EP4 [2] of 8.00.

For the molecule `C[C@H](NC(=O)c1c(C(F)F)nn(C)c1Oc1cccc(C(F)F)c1)c1ccc(C(=O)O)cc1` [ER-887480-00], the pIC50 at EP4 [1] is 7.29. The molecule further had a pKi at EP4 [2] of 7.59.

In turn, `Cc1nn(C)c(Oc2cccc(C(F)F)c2)c1C(=O)N[C@@H](C)c1ccc(C(=O)O)cc1` [ER-887495-00] showed a pIC50 on EP4 [1] of 6.66.

Turning to `C[C@H](NC(=O)c1c(C(F)(F)F)nn(C)c1Oc1cccc(C(F)F)c1)c1ccc(C(=O)O)cc1` [ER-887995-00], the pIC50 on EP4 [1] was 6.73. This pIC50 and that of the molecule before are within 0.2 log units of each other.

`C[C@H](NC(=O)c1c(C(F)F)nn(C)c1Oc1ccc(Cl)c(Cl)c1)c1ccc(C(=O)O)cc1` [ER-888024-00]: on EP4 [1], the pIC50 was 7.51.

`Cn1nc(C(F)F)c(C(=O)NC2(c3ccc(C(=O)O)cc3)CC2)c1Oc1ccc(Cl)c(Cl)c1` [ER-888348-00] gave a pIC50 against EP4 [1] of 7.77. This pIC50 lies 0.26 log units higher than the previous one.

Molecule `Cn1nc(C(F)F)c(C(=O)NC2(c3ccc(C(=O)O)cc3)CC2)c1Oc1cccc(Cl)c1` [ER-888355-00] had a pIC50 on EP4 [1] of 6.80.

Turning to `Cn1nc(C(F)(F)F)c(C(=O)NC2(c3ccc(C(=O)O)cc3)CC2)c1Oc1ccc(Cl)c(Cl)c1` [ER-888363-00], the pIC50 at EP4 [1] was 8.10.

`Cn1nc(C(F)(F)F)c(C(=O)NC2(c3ccc(C(=O)O)cc3)CC2)c1Oc1ccc(C(F)(F)F)cc1` [ER-888364-00] showed a pIC50 against EP4 [1] of 7.92.

At EP4 [1], `C[C@H](NC(=O)c1c(C(F)(F)F)nn(C)c1Oc1ccc(C(F)(F)F)cc1)c1ccc(C(=O)O)cc1` [ER-888365-00] gave a pIC50 of 7.55.

On to `Cn1nc(C(F)F)c(C(=O)NC2(c3ccc(C(=O)O)cc3)CC2)c1Oc1ccc(C(F)(F)F)cc1` [ER-888366-00], for which, on EP4 [1], the pIC50 was 7.82.

Regarding `C[C@H](NC(=O)c1c(C(F)F)nn(C)c1Oc1ccc(C(F)(F)F)cc1)c1ccc(C(=O)O)cc1` [ER-888367-00], on EP4 [1], the pIC50 was 7.64.

On EP4 [1], `Cn1nc(C(F)(F)F)c(C(=O)NC2(c3ccc(C(=O)O)cc3)CC2)c1Oc1ccc(Cl)cc1` [ER-888368-00] had a pIC50 of 7.74.

On to `C[C@H](NC(=O)c1c(C(F)(F)F)nn(C)c1Oc1ccc(Cl)cc1)c1ccc(C(=O)O)cc1` [ER-888369-00], for which the negative-log IC50 (pIC50) against EP4 [1] was 7.05.

`Cn1nc(C(F)F)c(C(=O)NC2(c3ccc(C(=O)O)cc3)CC2)c1Oc1ccc(Cl)cc1` [ER-888370-00]: the pIC50 against EP4 [1] was 7.46. This pIC50 is 0.41 log units higher than that of the molecule before.

With `C[C@H](NC(=O)c1c(C(F)F)nn(C)c1Oc1ccc(Cl)cc1)c1ccc(C(=O)O)cc1` [ER-888371-00], on EP4 [1], the pIC50 was 7.05.
